The record followed here is patent US11078185B2, “Mycobacterium tuberculosis—thioredoxin reductase inhibitor as an antitubercular agent” (Technische Universität Dortmund, priority 2017, dated 2021).

Series [1] concerns the target MtTrxR (Mycobacterium tuberculosis thioredoxin reductase) (Mycobacterium tuberculosis, UniProt P9WHH1). Put plainly: MtTrxR activity assay according to Lu et al. (DTNB assay). The format is biochemical. The note with it: error range = standard deviation. The protocol:
The compounds according to the invention show good inhibitory activity towards MtTrxR. In a preferred embodiment, the compounds according to the invention have an IC50 value according to Lu et al. from 0.10 to 10.00 μM. Methods for determining the IC50 value according to Lu et al. are known to those skilled in the art. Reference is made in this respect to J. Lu, A. Vlamis-Gardikas, K. Kandasamy, R. Zhao, T. N. Gustafsson, L. Engstrand, S. Hoffner, L. Engman, A. Holmgren, FASEB J. 2013, 27, 1394-1403.
(§1) A biochemical evaluation of the inhibitory activity (i.e. the IC50 value) of the compounds obtained towards MtTrxR by means of an activity assay according to Lu et al. (error range indicated by the standard deviation) was conducted. The testing of the potential inhibitors against MtTrxR was performed according to the description of Lu et al. Furthermore, MIC50 values (generic minimum inhibitory concentration) of certain compounds were measured with the BD BACTEC™ MGIT™ system: […]

Series [2] is classed as in vitro ADME. As to the method: Selected compounds were investigated in terms of their permeability with the aid of the PAMPA assay (Parallel Artificial Membrane Permeation Assay). The permeability of the compounds across an artificial membrane of phospholipids was tested in a filter plate. Since a significant difference existed between the artificial membrane and the mycobacterial cell wall, the values should only be used as a measure to be able to evaluate the permeability of the compounds with respect to each other. For this purpose, the distribution between a donor and acceptor chamber without membrane was determined as the reference value (100% flux), in which the concentration of the compounds in the chambers was determined spectrophotometrically. Subsequently, the permeability of compounds 1, 8, 63 and 68 across the membrane used was determined. The PAMPA flux [%] value was 12.60 for compound 1, 29.70 for compound 8, 53.60 for compound 63, and 41.00 for compound 68.

Series [3] deals with Mycobacterium tuberculosis. The series is described as follows: MIC50 measured with the BD BACTEC MGIT system. The format is cell-based. The note with it: read-out: MIC50 [μM] (μG/mL). The protocol: as §1
For series [4], the system named is Mycobacterium tuberculosis. Put plainly: Antimycobacterial activity (FIG. 1). The class given is cell-based. The source says: FIG. 1 is directed to the antimycobacterial activity of compounds 2, 8 and 68 according to the invention.
The subject of series [5] is Mycobacterium tuberculosis strain H37Rv in infected human macrophages. The series is described as follows: Antimycobacterial activity in infected human macrophages (FIG. 2). The format is cell-based. From the text:
FIG. 2 is directed to the antimycobacterial activity of compound 68 according to the invention against Mycobacterium tuberculosis strain H37Rv in infected human macrophages.

The subject of another series is human macrophages. The class given is cell-based. The source says: FIG. 3 is directed to the cytotoxic activity of compound 68 according to the invention against human macrophages.

Values after ≈ are worked out from the molar mass of the structure shown. Values joined by “and” are separate entries in the source; they are usually repeats but may differ in a detail not shown here. Equal values may be shown once.

Sequence of MtTrxR (Mycobacterium tuberculosis thioredoxin reductase) (P9WHH1 whole entry): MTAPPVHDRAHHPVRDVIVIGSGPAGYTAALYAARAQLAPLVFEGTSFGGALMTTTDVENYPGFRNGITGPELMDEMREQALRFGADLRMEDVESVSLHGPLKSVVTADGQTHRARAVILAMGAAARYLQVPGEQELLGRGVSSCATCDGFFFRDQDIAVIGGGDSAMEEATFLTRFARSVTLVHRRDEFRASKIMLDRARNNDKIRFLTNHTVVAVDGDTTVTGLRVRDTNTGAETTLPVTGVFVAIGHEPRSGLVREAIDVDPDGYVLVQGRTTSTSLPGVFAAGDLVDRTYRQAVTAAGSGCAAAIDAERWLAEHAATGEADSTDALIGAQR

The IC50 is the concentration that inhibits the measured activity by half. In turn, `COc1ccc2nc(C)cc(Nc3ccc(O)cc3)c2c1` [Compound 1, 4-((6-Methoxy-2-methylquinolin-4-yl)amino)phenol, reference compound] displayed a 50% inhibitory concentration (IC50) in series [1] of 11.5 ± 1.52 µM. Further, the “PAMPA flux [%]” value in series [2] is reported as 12.60%.

Turning to `COc1ccc2nc(C)cc(Nc3ccc(S(=O)(=O)c4ccc(Nc5ccncc5)cc4)cc3)c2c1` [Compound 2, 6-methoxy-2-methyl-N-(4-((4-(pyridin-4-ylamino)phenyl)sulfonyl)phenyl)quinolin-4-amine], the IC50 in series [1] amounted to 0.25 ± 0.04 µM. Further, in series [3], the MIC50 was in the range of 8 to 32 µM (≈ 3.97 to 15.9 µg/mL). In series [4], the antimycobacterial activity entry is “concentration-dependent antimycobacterial activity”.

Take `COc1ccc2nc(C)cc(Nc3ccc(Cc4ccc(N)cc4)cc3)c2c1` [Compound 8, N-(4-(4-aminobenzyl)phenyl)-6-methoxy-2-methylquinolin-4-amine]: the IC50 in series [1] came to 1.8 µM. In series [3], the MIC50 was in the range of 4 to 8 µM (≈ 1.48 to 2.96 µg/mL). Also, the “PAMPA flux [%]” value in series [2] worked out at 29.70%. In addition, the antimycobacterial activity result in series [4] is on record as “concentration-dependent antimycobacterial activity”.

Regarding `COc1ccc2nc(C)cc(Nc3ccc(S(=O)(=O)c4ccc(N)cc4)cc3)c2c1` [Compound 9, N-(4-((4-aminophenyl)sulfonyl)phenyl)-6-methoxy-2-methylquinolin-4-amine], in series [1], the concentration for half-maximal inhibition (IC50) is 5.21 ± 0.24 µM.

In series [1], `COc1ccc2nc(C)cc(Nc3ccc(S(=O)(=O)c4ccc(NC(C)=O)cc4)cc3)c2c1` [Compound 10, N-(4-((4-((6-methoxy-2-methylquinolin-4-yl)amino)phenyl)sulfonyl)phenyl)acetamide] yielded an IC50 of 3.59 ± 1.95 µM.

`COc1ccc2nc(C)cc(Nc3ccc(S(=O)(=O)c4ccc(Nc5ccncn5)cc4)cc3)c2c1` [Compound 24, 6-methoxy-2-methyl-N-(4-((4-(pyrimidin-4-yl-amino)phenyl)sulfonyl)phenyl)quinolin-4-amine] displayed an IC50 in series [1] of 0.51 ± 0.04 µM. In series [3], the MIC50 lay within 8 to 32 µM (≈ 3.98 to 15.9 µg/mL).

In series [1], `COc1ccc2nc(C)cc(Nc3ccc(S(=O)(=O)c4ccc(Nc5cc(C(C)(C)C)n[nH]5)cc4)cc3)c2c1` [Compound 25, N-(4-((4-((3-(tert-butyl)-1H-pyrazol-5-yl)amino)phenyl)sulfonyl)phenyl)-6methoxy-2-methylquinolin-4-amine] had an IC50 of 9.1 ± 0.3 µM.

`COc1ccc(Nc2ccc(S(=O)(=O)c3ccc(Nc4cc(C)nc5ccc(OC)cc45)cc3)cc2)cc1` [Compound 26, 6-methoxy-N-(4-((4-((4-methoxyphenyl)amino)phenyl)sulfonyl)phenyl)-2-methylquinolin-4-amine] gave an IC50 in series [1] of 1.9 ± 0.8 µM. The MIC50 in series [3] lay in the range of 8 to 32 µM (≈ 4.21 to 16.8 µg/mL).

On to `COC(=O)c1ccc(Nc2ccc(S(=O)(=O)c3ccc(Nc4cc(C)nc5ccc(OC)cc45)cc3)cc2)cc1` [Compound 27, methyl-4-((4-((4-((6-methoxy-2-methylquinolin-4-yl)amino)phenyl)sulfonyl)phenyl)amino) benzoate], for which the IC50 in series [1] is 4.8 ± 1.6 µM.

In series [1], `COc1ccc2nc(C)cc(Nc3ccc(C(=O)c4ccc(Nc5ccncc5)cc4)cc3)c2c1` [Compound 45, (4-((6-methoxy-2-methylquinolin-4-yl)amino)phenyl)(4-(pyridin-4-yl-amino)phenyl)methanone] gave an IC50 of 1.04 ± 0.2 µM. The MIC50 in series [3] is > 32 µM.

For the compound `COc1ccc2nc(C)cc(Nc3ccc(Cc4ccc(Nc5ccncc5)cc4)cc3)c2c1` [Compound 63, 6-methoxy-2-methyl-N-(4-(4-(pyridin-4-ylamino)benzyl)phenyl)quinolin-4-amine], the IC50 in series [1] is 5.64 µM and 4.7 µM. Further, in series [3], the MIC50 fell in the range of 8 to 32 µM (≈ 3.57 to 14.3 µg/mL). In series [2], the “PAMPA flux [%]” value turned out to be 53.60%.

With `COc1ccc2nc(C)cc(Nc3ccc(Cc4ccc(Nc5ccncn5)cc4)cc3)c2c1` [Compound 68, 6-methoxy-2-methyl-N-(4-(4-(pyrimidin-4-ylamino)benzyl)phenyl)quinolin-4-amine], the IC50 in series [1] was 2.03 µM and 1.7 µM. Further, in series [3], the MIC50 lay within 2 to 8 µM (≈ 0.895 to 3.58 µg/mL). Also, in series [2], the “PAMPA flux [%]” value is given as 41.00%. Also, in series [4], the antimycobacterial activity result is “concentration-dependent antimycobacterial activity”. In series [5], the “antimycobacterial activity in infected human macrophages” value is listed as “concentration-dependent antimycobacterial activity”. The cytotoxicity towards macrophages result in the series on human macrophages was “without being toxic”.
